The CheMixHub drug solubility set

Assay: xn = mol fraction of the nth substance listed, in the solute-free solvent

O=C(O)c1ccc(C(=O)O)o1 + O + COCCOC
solubility (g/100 g solution)
Settings	303.15 K	308.15 K	313.15 K	318.15 K	323.15 K	328.15 K	333.15 K	338.15 K	343.15 K
x2 = 0.1	1.42	1.44	1.5	1.57	1.65	1.75	1.83	1.93	2.05
x2 = 0.2	2.73	2.79	2.9	3.02	3.16	3.31	3.48	3.7	3.94
x2 = 0.3	3.75	3.9	4.06	4.22	4.39	4.58	4.79	5.05	5.33
x2 = 0.4	4.61	4.81	5.03	5.24	5.47	5.78	6.11	6.45	6.82
x2 = 0.5	5.53	5.75	6.03	6.31	6.69	7.05	7.45	7.81	8.16
x2 = 0.6	6.14	6.36	6.59	6.86	7.15	7.49	7.86	8.22	8.61
x2 = 0.7	5.57	5.8	6.08	6.35	6.64	6.93	7.24	7.62	8.03
x2 = 0.8	4.68	4.88	5.09	5.35	5.55	5.83	6.13	6.48	6.86
x2 = 0.9	4.41	4.57	4.74	4.91	5.11	5.32	5.55	5.87	6.22

O=C(O)c1ccc(C(=O)O)o1 + O + COCCOCCOC
solubility (g/100 g solution)
Settings	x2 = 0.1	x2 = 0.2	x2 = 0.3	x2 = 0.4	x2 = 0.5	x2 = 0.6	x2 = 0.7	x2 = 0.8	x2 = 0.9
303.15 K	1.37	2.07	2.83	4.05	5.13	6.23	6.17	5.55	3.4
308.15 K	1.42	2.15	2.96	4.22	5.35	6.45	6.42	5.78	3.72
313.15 K	1.47	2.23	3.09	4.4	5.58	6.69	6.69	6.02	4.05
318.15 K	1.53	2.34	3.23	4.59	5.79	6.96	6.97	6.3	4.34
323.15 K	1.59	2.46	3.37	4.79	6.03	7.25	7.28	6.59	4.64
328.15 K	1.67	2.56	3.53	5	6.29	7.62	7.59	6.96	4.91
333.15 K	1.74	2.68	3.71	5.23	6.58	8.03	7.93	7.36	5.21
338.15 K	1.84	2.83	3.88	5.46	6.96	8.47	8.33	7.78	5.51
343.15 K	1.92	2.94	4.01	5.62	7.24	8.75	8.61	8.14	5.75
348.15 K	2	3.1	4.17	5.84	7.52	9.16	9.15	8.46	6.05
353.15 K	2.07	3.25	4.3	6.03	7.75	9.47	9.63	8.76	6.31
